Test results as given in patent US20220274947A1, “NOVEL HETEROARYL-TRIAZOLE COMPOUNDS AS PESTICIDES” (Bayer Aktiengesellschaft, priority 2019, published 2022).

Legend:
Format in all cases: in vivo
Rhipicephalus microplus [1] = assay: Rhipicephalus (Boophilus) microplus in-vitro contact test, larval cattle tick, strain Parkhurst (BOOPMI Cont); settings: application rate 5 μg/cm^2 (=500 g/ha), tick larvae, after 48 hours, read-out: activity (efficacy: 100% means all larvae are dead or moribund)
How it was run: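 Acetone solutions dried onto glass tube walls (900 ppm giving 5 μg/cm^2); 20-50 pyrethroid-resistant Parkhurst larvae added per tube and held 48 h at 27° C., 85% relative humidity. Efficacy scored by negative geotaxis as % dead or moribund larvae.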

Spodoptera frugiperda = Spodoptera frugiperda spray test; settings: in Zea mays, 168 h, read-out: activity (mortality)
How it was run: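 Maize leaf sections were sprayed with compound formulated in acetone/DMF and diluted in water containing 1000 ppm emulsifier. Dried leaves were infested with fall armyworm larvae, and percent mortality was scored after 7 days.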

Rhipicephalus microplus [2] = assay: Rhipicephalus (Boophilus) microplus injection test (BOOPMI Inj); settings: 168 h, injection into adult engorged female ticks, egg deposition after 7 days, read-out: activity (efficacy: 100% means all eggs are infertile); for pest or weed control at 0.004 mg: application rate 4 μg/tick; for pest or weed control at 0.02 mg: application rate 20 μg/tick
How it was run: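 Five engorged adult female R. microplus ticks injected into the abdomen with 1 μL of compound diluted in DMSO, then kept in a climate chamber. Fertile egg deposition checked after 7 days; eggs without visible fertility held until hatching at about 42 days. Efficacy: 100% = all eggs infertile, 0% = all fertile.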

Rhipicephalus sanguineus = Rhipicephalus sanguineus in-vitro contact test, adult brown dog ticks (RHIPSA Cont); settings: 48 h, after 48 hours, read-out: activity (efficacy: 100% means all ticks are dead or moribund); for pest or weed control at 1 µg/cm2, 100 g/ha: application rate 1 μg/cm^2 (=100 g/ha); for pest or weed control at 5 µg/cm2, 500 g/ha: application rate 5 μg/cm^2 (=500 g/ha)
How it was run: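 Compound in acetone (9 mg/mL stock, diluted to test concentration) is coated onto inner walls of glass tubes by rotation for 2 h at 30 rpm. Efficacy is read after 48 h: ticks are tapped down and held on a 45-50° C plate for at most 5 min, and immotile or uncoordinated ones that fail to climb away count as dead or moribund.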

Diabrotica balteata = Diabrotica balteata spray test; settings: 168 h, wheat seeds, larvae, after 7 days, read-out: activity (efficacy: 100% means all seedlings have grown up like in the untreated, uninfected control); for pest or weed control at 32 µg/disc, 100 g/ha: application rate 100 g/ha (=32 μg/well); for pest or weed control at 160 µg/disc, 500 g/ha: application rate 500 g/ha (=160 μg/well)
How it was run: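 Wheat seedlings, germinated 1 day on agar, were sprayed with compound in acetone/DMF diluted in water containing emulsifier, then infested with 10-20 Diabrotica balteata larvae. After 7 days efficacy in % was scored: 100% means seedlings grew like the untreated, uninfected control; 0% means none grew.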

Ctenocephalides felis = Ctenocephalides felis in-vitro contact test, adult cat flea (CTECFE Cont); settings: application rate 5 μg/cm^2 (=500 g/ha), adult cat fleas, after 48 hours, read-out: activity (efficacy: 100% means all fleas are dead or moribund)
How it was run: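 Acetone solutions coated on glass tube inner walls (900 ppm giving 5 μg/cm^2), then 5-10 adult fleas added and held 48 h at room temperature. Fleas unable to escape a 45-50° C. heating plate within 5 min scored dead or moribund; efficacy = % dead/moribund.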

Nezara viridula = Nezara viridula spray test; settings: in Hordeum vulgare, 96 h, barley plants, larvae, after 4 days; for mortality at 500 g/ha: application rate 500 g/ha
How it was run: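 Barley plants infested with N. viridula larvae were sprayed with compound in acetone/DMF diluted with water containing 1000 ppm alkylarylpolyglycol ether emulsifier. Mortality (%) was scored after 4 days; 100% means all bugs killed, 0% none.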

| Structure (SMILES) | pest or weed control at 5 µg/cm2 (Rhipicephalus microplus [1]) [%] | mortality at 100 g/ha (Spodoptera frugiperda) [%] | mortality at 500 g/ha (Spodoptera frugiperda) [%] | pest or weed control at 0.004 mg (Rhipicephalus microplus [2]) [%] | pest or weed control at 0.02 mg (Rhipicephalus microplus [2]) [%] | pest or weed control at 1 µg/cm2, 100 g/ha (Rhipicephalus sanguineus) [%] | pest or weed control at 5 µg/cm2, 500 g/ha (Rhipicephalus sanguineus) [%] | pest or weed control at 32 µg/disc, 100 g/ha (Diabrotica balteata) [%] | pest or weed control at 160 µg/disc, 500 g/ha (Diabrotica balteata) [%] | pest or weed control at 5 µg/cm2 (Ctenocephalides felis) [%] | mortality at 500 g/ha (Nezara viridula) [%] | mortality at 100 g/ha (Nezara viridula; application rate 100 g/ha) [%] |
| --- | --- | --- | --- | --- | --- | --- | --- | --- | --- | --- | --- | --- |
| CCc1nc([C@H](C)NC(=O)c2cc(C(F)(F)F)cc(C(F)(F)F)c2)n(-c2ccc(C#N)cn2)n1 [I-1] | 100 | 100 | 100 | 100 | 100 | 80 | 100 | 100 | 100 | 90 | – | – |
| CC(C)c1nc([C@H](C)NC(=O)c2cncc(C(F)(F)F)c2)n(-c2ccc(C#N)cn2)n1 [I-30] | 100 | 100 | – | 100 | 100 | 80 | – | 100 | – | 80 | – | – |
| C[C@H](NC(=O)c1cc(Cl)cc(OC(F)(F)F)c1)c1ncnn1-c1cc(N)ccn1 [II-7] | – | – | 100 | 100 | 100 | – | – | 100 | 100 | 90 | 90 | – |
| C[C@H](NC(=O)c1cccc(Cl)n1)c1ncnn1-c1ccc(C#N)cn1 [II-9] | 80 | 83 | 100 | – | 100 | – | 80 | 100 | 100 | – | 100 | – |
| Cc1nc([C@H](C)NC(=O)c2cc(Cl)cc(Cl)c2)n(-c2cc(C#N)ccn2)n1 [II-17] | 90 | – | 100 | 100 | 100 | 80 | 100 | 100 | 100 | 100 | – | – |
| Cc1nc([C@H](C)NC(=O)c2cc(Cl)cc(C(F)(F)F)c2)n(-c2cc(C#N)ccn2)n1 [II-18] | 100 | 100 | 100 | 100 | 100 | 100 | 100 | 100 | 100 | 100 | – | – |
| Cc1nc([C@H](C)NC(=O)c2cc(C(F)(F)F)cc(C(F)(F)F)c2)n(-c2cc(C#N)ccn2)n1 [II-19] | 100 | 100 | 100 | 100 | 100 | 100 | 100 | 100 | 100 | 100 | – | – |
| CC(=O)Nc1ccnc(-n2ncnc2[C@H](C)NC(=O)c2cc(Cl)cc(OC(F)(F)F)c2)c1 [II-22] | 80 | – | 83 | 100 | 100 | – | – | – | 100 | 100 | – | – |
| C[C@H](NC(=O)c1cc(C(F)(F)F)cc(C(F)(F)F)c1)c1ncnn1-c1ncc(Br)s1 [II-41] | 100 | 100 | – | 100 | 100 | 100 | 100 | 100 | 100 | – | – | 90 |
| C[C@H](NC(=O)c1cc(Cl)cc(C(F)(F)F)c1)c1ncnn1-c1cc(-n2cncn2)ccn1 [II-43] | 100 | 100 | 100 | 100 | 100 | 100 | 100 | 100 | 100 | 100 | – | – |
| Cc1nc([C@H](C)NC(=O)c2cc(Cl)cc(Br)c2)n(-c2ccc(C#N)cn2)n1 [II-50] | 100 | 100 | – | 100 | 100 | 100 | 100 | 100 | – | 100 | – | – |
| Cc1nc([C@H](C)NC(=O)c2cc(Br)cc(Br)c2)n(-c2ccc(C#N)cn2)n1 [II-52] | 100 | 100 | – | 100 | 100 | 100 | 100 | 100 | – | 100 | – | – |
| Cc1nc([C@H](C)NC(=O)c2cc(Br)cc(C#N)c2)n(-c2ccc(C#N)cn2)n1 [II-54] | 100 | 100 | – | 100 | 100 | 100 | 100 | 100 | – | 100 | – | – |
| C[C@H](NC(=O)c1cc(Br)cc(C(F)F)c1)c1ncnn1-c1ccc(C#N)cn1 [II-83] | 90 | 100 | – | 100 | – | 100 | 100 | 100 | – | 100 | – | – |
| Cc1nc([C@H](C)NC(=O)c2cc(C(F)(F)F)cc(C(F)(F)F)c2)n(-c2ccc(C(=O)N(C)C3CC3)cn2)n1 [II-96] | 100 | 100 | – | 100 | – | 100 | 100 | 100 | – | 100 | – | – |
